Experimental data as given in article PMC11031295 (ChemMedChem, 2024).
pEC50: −log10 of the molar value. “Also recorded” adds a separate entry of the source.

Assays:
ERCC1 = conditions: binding pocket on ERCC1; cited from earlier work
[1] = target: T1, ERCC1/XPA protein-protein interaction (MBP-ERCC1 central domain / fluorescein-labeled XPA67-80 peptide) (Homo sapiens, UniProt P07992); experiment: Fluorescence polarization; assay type: binding
T1 sequence (P07992 96-214): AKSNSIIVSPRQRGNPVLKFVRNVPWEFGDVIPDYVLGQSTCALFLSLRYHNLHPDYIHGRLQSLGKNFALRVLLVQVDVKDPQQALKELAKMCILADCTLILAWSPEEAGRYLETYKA

[2] = target: T2, 15N-labeled human ERCC1 fragment containing residues 96-214 (Homo sapiens, UniProt P07992); experiment: Backbone chemical shift perturbation mapping by NMR; assay type: binding; conditions: 0.25 mM ERCC1, titration with compound 1, pH 7.5, 28 °C
T2 sequence (P07992 96-214): T1 sequence (P07992 96-214)

Row | pEC50 [1] | Molecule | binding affinity to ERCC1 (in words) (ERCC1) | binding site on ERCC1 (in words) [2]
1 |  | 14-mer peptide corresponding to residues 67-80 of XPA: truncated 14-mer peptide corresponding to residues 67-80 of XPA (KIIDTGGGFILEEE; UniProt P23025 67-80, looked up, fragment) | sub-micromolar affinity | 
2 | 4.68 | Cc1cc(C)c(C#N)c(SCC(O)c2cccc([N+](=O)[O-])c2)n1 (stereo not drawn) [Compound 1, 2-[2-hydroxy-2-(3-nitrophenyl)ethyl]sulfanyl-4,6-dimethyl-pyridine-3-carbonitrile] |  | binds within the same site as the truncated XPA67-80 peptide; also recorded: binds to the same site as the truncated XPA 14-mer; also recorded: binds to the same central domain of ERCC1 as truncated XPA peptides
